Experimental data as given in ChEMBL document CHEMBL1201862, “PubChem BioAssay data set” (2004).
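Five concentrations, 48 hours, 96-well plates. At the GI50, growth is halved.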 The source made the active and inactive calls. Cut-off read from the data, not from the text of the source: active = GI50 up to about 1.1 µM and inactive = higher.

What was measured:
Assay in all cases: NCI anticancer screen, dose series, 48 h
NCI-H522 = test system: NCI-H522
Malme-3M = test system: Malme-3M
MOLT-4 = test system: MOLT-4
OVCAR-8 = test system: OVCAR-8
K562 = test system: K562
T47D = test system: T47D
RPMI-8226 = test system: RPMI-8226
SK-MEL-5 = test system: SK-MEL-5
RXF 393 = test system: RXF 393
SR = test system: SR
HCT-15 = test system: HCT-15
SF-295 = test system: SF-295
U-251 = test system: U-251
Hs-578T = test system: Hs-578T
EKVX = test system: EKVX
HOP-62 = test system: HOP-62
NCI-H226 = test system: NCI-H226
SNB-19 = test system: SNB-19
SNB-75 = test system: SNB-75

Row | Structure (SMILES) | GI50 (NCI-H522) | GI50 (Malme-3M) | GI50 (MOLT-4) | GI50 (OVCAR-8) | GI50 (K562) | GI50 (T47D) | GI50 (RPMI-8226) | GI50 (SK-MEL-5) | GI50 (RXF 393) | GI50 (SR) | GI50 (HCT-15) | GI50 (SF-295) | GI50 (U-251) | GI50 (Hs-578T) | GI50 (EKVX) | GI50 (HOP-62) | GI50 (NCI-H226) | GI50 (SNB-19) | GI50 (SNB-75)
1 | CC(=O)OC(CN1CCN(c2ccccn2)CC1)Cn1sc2nc(C)cc(C)c2c1=O (centres undefined) | 7.03 µM (inactive) | 18.6 µM (inactive) | 5.58 µM (inactive) | 28.7 µM (inactive) | 32.7 µM (inactive) | 28 µM (inactive) | 5.12 µM (inactive) | 13.2 µM (inactive) | 20.2 µM (inactive) | 4.61 µM (inactive) | 20 µM | > 100 µM (inactive) | 18.1 µM (inactive) | 20.7 µM (inactive) | 17.3 µM (inactive) | 28.8 µM (inactive) | > 100 µM (inactive) | > 100 µM (inactive) | 16 µM (inactive)
2 | C/C(=C\c1ccc2c(c1)OCO2)[N+](=O)[O-] | 1.64 µM (inactive) | 2.84 µM (inactive) | 0.195 µM (active) | 2.77 µM (inactive) | 1.64 µM (inactive) | 1.64 µM (inactive) | 0.225 µM (active) | 1.91 µM (inactive) | 1.46 µM (inactive) | 0.323 µM (active) | 1.96 µM | 2.85 µM (inactive) | 1.79 µM (inactive) | 5.14 µM (inactive) | 4.08 µM (inactive) | 3.56 µM (inactive) | 3.84 µM (inactive) | 2.49 µM (inactive) | 5.16 µM (inactive)
3 | C=C1C(=O)OC2C3OC(C)(CCC(O)C3COC(C)=O)CC(OC(=O)/C(=C/C)COC(C)=O)C12 (centres undefined) | 0.0317 µM (active) | 0.0242 µM (active) | 0.0783 µM (active) | 0.532 µM (active) | 0.0775 µM (active) | 0.142 µM (active) | 0.0698 µM (active) | 0.684 µM (active) | 0.223 µM (active) | 0.196 µM (active) | 0.061 µM | 9.12 µM (inactive) | 1.22 µM (inactive) | 0.634 µM (active) | 0.424 µM (active) | 3.08 µM (inactive) | 2.16 µM (inactive) | 5.32 µM (inactive) | 4.66 µM (inactive)
4 | NCCOc1ccccn1 | > 100 µM (inactive) | > 100 µM (inactive) | > 100 µM (inactive) | > 100 µM (inactive) | > 100 µM (inactive) | > 100 µM (inactive) | > 100 µM (inactive) | > 100 µM (inactive) | > 100 µM (inactive) | > 100 µM (inactive) | > 100 µM | > 100 µM (inactive) | > 100 µM (inactive) | > 100 µM (inactive) | > 100 µM (inactive) | > 100 µM (inactive) | > 100 µM (inactive) | > 100 µM (inactive) | > 100 µM (inactive)
5 | N#C/C(=C\c1ccccc1)c1nc(-c2cc3ccccc3oc2=O)cs1 | > 100 µM (inactive) | > 100 µM (inactive) | > 100 µM (inactive) | > 100 µM (inactive) | > 100 µM (inactive) | > 100 µM (inactive) | > 100 µM (inactive) | > 100 µM (inactive) | > 100 µM (inactive) | > 100 µM (inactive) | > 100 µM | > 100 µM (inactive) | 41.6 µM (inactive) | 48 µM (inactive) | 71.3 µM (inactive) | 30.9 µM (inactive) | > 100 µM (inactive) | 74.3 µM (inactive) | 39.3 µM (inactive)
6 | CC(=O)OCC1OC(OCCCOP(=S)(OCCC#N)OCC2OC(n3ccc(N)nc3=O)C(OC(=O)c3ccccc3)C2OC(=O)c2ccccc2)C(OC(C)=O)C(OC(C)=O)C1OC(C)=O (centres undefined) | > 100 µM (inactive) | > 100 µM (inactive) | > 100 µM (inactive) | > 100 µM (inactive) | > 100 µM (inactive) | > 100 µM (inactive) | > 100 µM (inactive) | > 100 µM (inactive) | > 100 µM (inactive) | > 100 µM (inactive) | > 100 µM | > 100 µM (inactive) | > 100 µM (inactive) | > 100 µM (inactive) | > 100 µM (inactive) | 43.5 µM (inactive) | > 100 µM (inactive) | > 100 µM (inactive) | 75.5 µM (inactive)
7 | c1ccc([P+](Cc2ccc(C[P+](c3ccccc3)(c3ccccc3)c3ccccc3)s2)(c2ccccc2)c2ccccc2)cc1 | > 100 µM (inactive) | > 100 µM (inactive) | > 100 µM (inactive) | > 100 µM (inactive) | > 100 µM (inactive) | > 100 µM (inactive) | > 100 µM (inactive) | > 100 µM (inactive) | > 100 µM (inactive) | > 100 µM (inactive) | > 100 µM | > 100 µM (inactive) | > 100 µM (inactive) | > 100 µM (inactive) | > 100 µM (inactive) | > 100 µM (inactive) | > 100 µM (inactive) | > 100 µM (inactive) | > 100 µM (inactive)
8 | Cc1ccc(/N=C2\C(=O)C3=C(OC(C)(C)CC3)c3ccccc32)cc1 | 1.25 µM (inactive) | 0.352 µM (active) | 0.729 µM (active) | 0.357 µM (active) | 0.197 µM (active) | 0.366 µM (active) | 0.232 µM (active) | 0.951 µM (active) | 1.71 µM (inactive) | 0.275 µM (active) | 0.415 µM | 1.4 µM (inactive) | 0.577 µM (active) | 2.82 µM (inactive) | 1.81 µM (inactive) | 0.542 µM (active) | 2.86 µM (inactive) | 0.851 µM (active) | 1.26 µM (inactive)
9 | CCOC(=O)c1c(-c2ccccc2)nc2c(OC)nccn12 | > 100 µM (inactive) | > 100 µM (inactive) | 14.5 µM (inactive) | > 100 µM (inactive) | > 100 µM (inactive) | 25.4 µM (inactive) | > 100 µM (inactive) | 61.1 µM (inactive) | 15.4 µM (inactive) | > 100 µM (inactive) | > 100 µM | > 100 µM (inactive) | > 100 µM (inactive) | > 100 µM (inactive) | > 100 µM (inactive) | > 100 µM (inactive) | > 100 µM (inactive) | > 100 µM (inactive) | > 100 µM (inactive)
10 | C=CCON(C(=O)OC(C)(C)C)C(C)(C)C | > 100 µM (inactive) | > 100 µM (inactive) | > 100 µM (inactive) | > 100 µM (inactive) | > 100 µM (inactive) | > 100 µM (inactive) | > 100 µM (inactive) | > 100 µM (inactive) | > 100 µM (inactive) | > 100 µM (inactive) | > 100 µM | > 100 µM (inactive) | > 100 µM (inactive) | > 100 µM (inactive) | > 100 µM (inactive) | > 100 µM (inactive) | > 100 µM (inactive) | > 100 µM (inactive) | > 100 µM (inactive)
11 | Cc1nc2c(n1-c1ccc(Br)cc1)C(=O)c1ccccc1C2=O | 10.4 µM (inactive) | 9.95 µM (inactive) | 0.989 µM (active) | 6.52 µM (inactive) | 1.33 µM (inactive) | 19.3 µM (inactive) | 1.43 µM (inactive) | 12.6 µM (inactive) | 14.8 µM (inactive) | 1.07 µM (active) | 1.04 µM | 5.45 µM (inactive) | 3.54 µM (inactive) | 7.78 µM (inactive) | > 54.6 µM (inactive) | 18.3 µM (inactive) | 51.6 µM (inactive) | 3.6 µM (inactive) | 20 µM (inactive)
